Test results taken from patent US20250066380A1, “NOVEL FURANO-NAPHTHOQUINONE AND NOVEL PYRAZINONE COMPOUNDS FROM AMYCOLATOPSIS AND ACTIVITIES THEREOF” (COUNCIL OF SCIENTIFIC AND INDUSTRIAL RESEARCH (AN INDIAN …, priority 2022, published 2025).
In brackets after ≈: the same amount, converted by molar mass. Read-outs that look alike come from different tables or passages of the source.

How the values were obtained:
[1] = system: Bacillus cereus ATCC 11778; test: MIC, CLSI broth microdilution; assay type: cell-based; conditions: Mueller Hinton broth, 18 hours at 37° C., highest concentration 128 μg/ml
Procedure: (§1) The MICs of the purified compounds were done according to CLSI guidelines using Mueller Hinton broth (Hi media) against panel of six Gram positive bacteria S.aureus, S.epidermidis, B.cereus, B.subtilis, M.luteus and L.monocytogenes, two Gram negative bacteria E.coli and P.aeruginosa, and four MRSA (Methicillin resistant S.aureus) clinical strain. The stock solution of compounds were made at 10 mg/ml in DMSO. The test compounds (highest concentration 128 μg/ml) were serially diluted in 50 μl of Mueller Hinton broth and 50 μl of bacterial suspension were added to reach the final desired cell density of 5×10^5 CFU ml^−1 in each well of 96 well microtiter plate except the media control. The medium, untreated culture, DMSO, ampicillin and kanamycin were used as controls. […] The MICs were defined as the lowest concentration that inhibited visible growth of bacteria.

[2] = system: Bacillus subtilis ATCC 6633; test: MIC, CLSI broth microdilution; assay type: cell-based; conditions: Mueller Hinton broth, 18 hours at 37° C., highest concentration 128 μg/ml
Procedure: as §1

[3] = system: Listeria monocytogenes ATCC 19111; test: MIC, CLSI broth microdilution; assay type: cell-based; conditions: Mueller Hinton broth, 18 hours at 37° C., highest concentration 128 μg/ml
Procedure: as §1

[4] = system: Micrococcus luteus ATCC 9341; test: MIC, CLSI broth microdilution; assay type: cell-based; conditions: Mueller Hinton broth, 18 hours at 37° C., highest concentration 128 μg/ml
Procedure: as §1

[5] = system: Staphylococcus aureus ATCC 9144; test: MIC, CLSI broth microdilution; assay type: cell-based; conditions: Mueller Hinton broth, 18 hours at 37° C., highest concentration 128 μg/ml
Procedure: as §1

[6] = system: Staphylococcus epidermidis ATCC; test: MIC, CLSI broth microdilution; assay type: cell-based; conditions: Mueller Hinton broth, 18 hours at 37° C., highest concentration 128 μg/ml
Procedure: as §1

[7] = system: Mycobacterium smegmatis ATCC 607; test: MIC, Middlebrook 7H9 medium; assay type: cell-based; conditions: for MIC: Middlebrook 7H9 medium, 48 hours at 37° C., highest concentration 128 μg/ml
MRSA_10B = test: MIC, CLSI broth microdilution, MRSA clinical strain; assay type: cell-based, Methicillin resistant S.aureus; conditions: Mueller Hinton broth, 18 hours at 37° C., highest concentration 128 μg/ml
Procedure: as §1

MRSA_3B = test: as above; assay type: cell-based, Methicillin resistant S.aureus; conditions: Mueller Hinton broth, 18 hours at 37° C., highest concentration 128 μg/ml
Procedure: as §1

MRSA_6B = test: as above; assay type: cell-based, Methicillin resistant S.aureus; conditions: Mueller Hinton broth, 18 hours at 37° C., highest concentration 128 μg/ml
Procedure: as §1

MRSA_9B = test: as above; assay type: cell-based, Methicillin resistant S.aureus; conditions: Mueller Hinton broth, 18 hours at 37° C., highest concentration 128 μg/ml
Procedure: as §1

Gram-positive bacteria = test: MIC, panel of Gram positive bacteria; assay type: cell-based
Procedure: as §1

[8] = system: resistant clinical bacterial strains; test: MIC, resistant clinical bacterial strains; assay type: cell-based, MRSA (Methicillin resistant S.aureus)
Procedure: as §1

[9] = system: blood-stage Plasmodium falciparum (3D7 strain); test: Antimalarial activity, SYBR green staining-based parasitemia determination; assay type: cell-based; conditions: P. falciparum 3D7
Procedure: The antimalarial activity was carried out on blood-stage Plasmodium falciparum (3D7 strain) with various concentrations ranging from 10 μM to 0.01 μM by 5 SYBR green staining-based parasitemia determination. Parasite cultures were incubated with the test compounds for 60 h under optimal growth conditions, following which the cells were lysed with 0.01% Triton X and stained with SYBR Green I nucleic acid stain (Thermo Fisher Scientific) to estimate parasite growth and inhibition. Fluorescence readings were obtained with a GloMax plate reader (Promega) after 15 min incubation in the dark and raw fluorescence readings were processed. The % growth inhibition values were estimated from comparisons between test and control samples.

A549 (lung cancer) = test: MTT cell viability assay; assay type: cell-based; conditions: Homo sapiens, A549, 24 hours treatment
Procedure: (§2) MTT assay was used for the study of cell viability, which measured cellular metabolic activity based on the ability of nicotinamide adenine dinucleotide phosphate (NADPH) dependent oxidoreductase enzymes to reduce the yellow tetrazolium salt 3-[4,5-dimethylthiazole-2-yl]-2,5-diphenyltetrazolium bromide (MTT) to purple formazan crystals. The cell lines used for the study were A549 (lung cancer), HeLa (Cervical cancer) and MDA MB-231 (Breast cancer), which were seeded with a density of 10,000 cells/well into 96-well plates and incubated at 37° C. with 5% CO2 for 20 hours. The compounds with different concentrations were used to treat the cells for 24 hours. The medium was replaced with 100 μL of MTT solution (0.5 mg/mL in DMEM) and then incubated for 4 h at 37° C. in dark. Subsequently, MTT solution was removed and the formazan crystals were solubilized by addition of 100 μl DMSO. The optical density was measured at 570 nm by a Biotek synergy H1 microplate reader.

HeLa (Cervical cancer) = test: MTT cell viability assay; assay type: cell-based; conditions: Homo sapiens, 24 hours treatment
Procedure: as §2

[10] = system: MDA MB-231 (Breast cancer); test: MTT cell viability assay; assay type: cell-based; conditions: Homo sapiens, MDA-MB-231, 24 hours treatment
Procedure: as §2

[11] = system: MDA-MB-231, A549 and HeLa; test: MTT cell viability assay, tested cancer cell lines; assay type: cell-based
Procedure: as §2

[12] = system: Pseudomonas aeruginosa ATCC 9027; test: MIC, CLSI broth microdilution; assay type: cell-based; conditions: Mueller Hinton broth, 18 hours at 37° C., highest concentration 128 μg/ml
Procedure: as §1

[13] = system: Escherichia coli ATCC 8739; test: MIC, CLSI broth microdilution; assay type: cell-based; conditions: ATCC8739, Mueller Hinton broth, 18 hours at 37° C., highest concentration 128 μg/ml
Procedure: as §1

[14] = Bacillus cereus, ATCC11778, read-out: MIC
[15] = Bacillus subtilis, ATCC6633, read-out: MIC
[16] = Listeria monocytogenes, ATCC19111, read-out: MIC
[17] = Micrococcus luteus, ATCC9341, read-out: MIC
[18] = Staphylococcus aureus, ATCC9144, read-out: MIC
[19] = Staphylococcus epidermidis, read-out: MIC
[20] = Mycolicibacterium smegmatis, ATCC607, read-out: MIC
[21] = Staphylococcus aureus, read-out: MIC

Row | Structure (SMILES) | MIC [1, 14] [µg/mL] | MIC [2, 15] [µg/mL] | MIC [3, 16] [µg/mL] | MIC [4, 17] [µg/mL] | MIC [5, 18] [µg/mL] | MIC [6, 19] [µg/mL] | MIC [7, 20] [µg/mL] | MIC (MRSA_10B; [21]) [µg/mL] | MIC (MRSA_3B; [21]) [µg/mL] | MIC (MRSA_6B; [21]) [µg/mL] | MIC (MRSA_9B; [21]) [µg/mL] | antibacterial activity against Gram-positive bacteria (Gram-positive bacteria) | IC50 (A549 (lung cancer)) [µg/mL] | IC50 (HeLa (Cervical cancer)) [µg/mL] | IC50 [10] [µg/mL] | antimalarial activity [9] | anticancer activity [11] | other results
1 | CC1OC2OC3C4=C(OC3(C)C12O)C(=O)c1c(O)cccc1C4=O (stereo not drawn) [Compound C-1] | 8 (≈ 24.2 µM) | 4 (≈ 12.1 µM) | 2 (≈ 6.06 µM) | 8 (≈ 24.2 µM) | 2 (≈ 6.06 µM) | 2 (≈ 6.06 µM) | 64 (≈ 194 µM) | 4 (≈ 12.1 µM) | 4 (≈ 12.1 µM) | 4 (≈ 12.1 µM) | 4 (≈ 12.1 µM) | good antibacterial activity | 2.14 | 3.53 | 1.79 | – | – | activity against Mycobacterium smegmatis [7]: weakly active; activity against the resistant clinical bacterial strains [8]: active; EC50 ([9]; Plasmodium falciparum, read-out: antimalarial activity (bound)): < 1000 nM; IC50 ([11]; read-out: IC50 value range over the tested cancer cell lines): 1.79 to 8.82 µg/mL
2 | CC(C)Cc1nc(C(C)C(=O)O)c(C(C)C)n(O)c1=O (stereo not drawn) [Compound C-4] | 128 (≈ 453 µM) | 128 (≈ 453 µM) | 128 (≈ 453 µM) | 64 (≈ 227 µM) | 128 (≈ 453 µM) | 64 (≈ 227 µM) | – | 128 (≈ 453 µM) | 128 (≈ 453 µM) | 128 (≈ 453 µM) | 128 (≈ 453 µM) | weakly active | 40.2 | 15.4 | 14.1 | moderately active | moderate activity | –
3 | CC1(C)S[C@@H]2[C@H](NC(=O)[C@H](N)c3ccccc3)C(=O)N2[C@H]1C(=O)O [Ampicilli, ampicillin, reference compound] | – | – | – | – | – | – | – | – | – | – | – | – | – | – | – | – | – | MIC [1]: 16 µg/mL (≈ 45.8 µM); MIC [2]: 0.03 µg/mL (≈ 0.0859 µM); MIC [3]: 0.03 µg/mL (≈ 0.0859 µM); MIC [4]: 0.03 µg/mL (≈ 0.0859 µM); MIC [12]: 2 µg/mL (≈ 5.72 µM); MIC [5]: 0.03 µg/mL (≈ 0.0859 µM); MIC [6]: 1 µg/mL (≈ 2.86 µM); MIC [7]: 64 µg/mL (≈ 183 µM); MIC (MRSA_10B): 4 µg/mL (≈ 11.4 µM); MIC (MRSA_3B): 8 µg/mL (≈ 22.9 µM); MIC (MRSA_6B): 8 µg/mL (≈ 22.9 µM); MIC (MRSA_9B): 16 µg/mL (≈ 45.8 µM)
4 | NC[C@H]1O[C@H](O[C@H]2[C@H](O)[C@@H](O[C@H]3O[C@H](CO)[C@@H](O)[C@H](N)[C@H]3O)[C@H](N)C[C@@H]2N)[C@H](O)[C@@H](O)[C@@H]1O [Kanamycin, kanamycin, reference compound] | 2 (≈ 4.13 µM) | 0.5 (≈ 1.03 µM) | 1 (≈ 2.06 µM) | 8 (≈ 16.5 µM) | 8 (≈ 16.5 µM) | 1 (≈ 2.06 µM) | 0.25 (≈ 0.516 µM) | – | – | – | 128 (≈ 264 µM) | – | – | – | – | – | – | MIC [13]: 8 µg/mL (≈ 16.5 µM); MIC ([12]; Pseudomonas aeruginosa, ATCC9027, read-out: MIC): 8 µg/mL (≈ 16.5 µM)
5 | CC1OC2OC3C(C)(OC4(O)C(=O)c5c(O)cccc5C(=O)C34O)C12O (stereo not drawn) [Compound C-2] | – | – | – | – | – | – | – | – | – | – | – | weakly active | 44.9 | 36 | 19.1 | moderately active | moderate activity | –
